Assay results published in patent publication US11970504B1, “2-benzo-[3,4-b] quinolino-{b,g]indeno [1′,2′:3,4] fluoreno-[1,2-d] Oxonine-5,11,16,21-tetraone as an antimicrobial compound” (KING FAISAL UNIVERSITY, priority 2023, dated 2024).

How the values were obtained:
Pseudomonas aeruginosa = experiment: Antimicrobial screening by agar dilution, Pseudomonas aeruginosa; format: cell-based; details: after 10, 20, 40 and 60 minutes at all dilutions 1:100, 1:200, 1:400, 1:800
Description: (§1) The antibacterial properties of the synthesized compound 2-benzo-[3,4-b]quinolino-[b,g]indeno[1′,2′:3,4]fluoreno-[1,2-d]oxonine-5,11,16,21-tetraone were studied by the method of agar dilution. Test solutions of each compound was prepared in concentration of 1% using dimethylformamide as a solvent then they are diluted in physiological solution to obtain the final experimental dilutions 1:100, 1:200, 1:400, 1:800. The effect of these substances are compared with furacillin in a controllable study. The testing microbes used were gram positive bacteria Staphylococcus aureus, gram negative bacteria Pseudomonas aeruginosa and Escherichia co/i and Candida albicans fungus. The experiments used for this survey were meat-pentonlu agar (EPA) for cultivation of bacteria and Saburo environment for the fungus. Each experiment used 1 mL of test solution on each plate […]. Two drops of emulsified with microbes feel were added. All experimental samples were taken from the agar after 10, 20, 40, 60 minutes in the environment on the basis of Patrk planted. The bacteria were cultivated at a temperature of 37° C. for 1 day and the mushroom was kept in a thermostat for […] at a temperature of 28° C. Then results were checked.

Staphylococcus aureus = experiment: Antimicrobial screening by agar dilution, Staphylococcus aureus; format: cell-based; details: after 10, 20, 40 and 60 minutes at all dilutions 1:100, 1:200, 1:400, 1:800
Description: as §1

Candida albicans = experiment: Antimicrobial screening by agar dilution, Candida albicans; format: cell-based; details: after 10, 20, 40 and 60 minutes at all dilutions 1:100, 1:200, 1:400, 1:800
Description: as §1

Escherichia coli = experiment: Antimicrobial screening by agar dilution, Escherichia coli; format: cell-based; details: after 10, 20, 40 and 60 minutes at all dilutions 1:100, 1:200, 1:400, 1:800
Description: as §1

O=C1Oc2nc3ccccc3cc2-c2c(c3c4ccccc4c(=O)c3c3c2c(=O)c2ccccc23)C(=O)c2ccccc21 [2-benzo-[3,4-b]quinolino-[b,g]indeno[1′,2′:3,4]fluoreno-[1,2-d]oxonine-5,11,16,21-tetraone]
inhibition activity (Pseudomonas aeruginosa): highest inhibition activity | melting point: 251 °C | inhibition activity (Staphylococcus aureus): highest inhibition activity | inhibition activity (Candida albicans): highest inhibition activity | inhibition activity (Escherichia coli): highest inhibition activity
